Laboratory results taken from patent US8993716B2, “Peptides used in the treatment and/or care of the skin, mucous membranes and/or hair and its use in cosmetic or pharmaceutical compositions” (Lipotec, S.A., priority 2009, dated 2015).
Peptide text beside a SMILES is read from it. * marks the point of attachment. Cbz = O=C(OCc1ccccc1)*

Columns and labels:
[1] = tested on: Hsp70; assay: Hsp70 synthesis stimulation assay (competitive ELISA); type: cell-based; details: human keratinocyte cell line, normalized to average basal values
Procedure: Hsp70 synthesis stimulation was assessed in a human keratinocyte cell line in the presence of the peptides of the invention. The cells were seeded (10^6 cells/6-well plate) and incubated for 24 hours in DMEM, after which the peptides were added to 200 μM in culture medium and were incubated for another 16-24 hours. The proteasome inhibitor MG-132 at 10 μM was used as a positive control and vehicle (culture medium) as a negative control. After the incubation period, the cells were washed with PBS, lysed and centrifuged at 12,000 rpm at 4° C. for 10 min. The supernatants were collected, and the Hsp70 levels were determined by carrying out a competitive ELISA assay following the protocols of the commercial kit (DuoSet IC human/mouse total HSP70 ELISA kit, R&D Systems Inc.)
Hsp70 levels were normalized with regards to the average basal values.

[2] = tested on: human keratinocytes; type: cell-based; details: 2 h, 0.1 mM
Procedure: The human keratinocytes were maintained in culture for 24 hours in 96-well plates for monolayer formation and the cells were pre-incubated in darkness with 0.1 mM of Ac-L-His-L-Pro-L-Leu-L-Arg-OH, Ac-L-His-L-Leu-L-Leu-L-Arg-OH in culture medium or with vehicle (culture medium) for 2 hours at 37° C. Subsequently the cells were radiated with UVB at an energy of 800 J/m^2. A control plate with vehicle was maintained in the dark without radiation for the same time at room temperature. After the irradiation period the cells' medium was replaced by a fresh medium and the cells were incubated for additional 24 hours. Cell viability was determined by the MTT method, adding 5 mg/mL of the MTT solution to each well and incubating the plate for 4 hours at 37° C., after which time the medium was removed, 100μL of DMSO was added and the plate was stirred at room temperature for 15 min. The optical density of each well was measured at 570 nm in a spectrophotometer.

Compound	Hsp70 increase ([1]; peptide 200 μM, 16-24 hours) [%]	CELL VIABILITY [2] [%]	Hsp70 increase ([1]; positive control MG-132 at 10 μM) [%]
CC(=O)N[C@@H](Cc1c[nH]cn1)C(=O)N[C@@H](CC(C)C)C(=O)N[C@@H](CC(C)C)C(=O)N[C@@H](CCCNC(=N)N)C(=O)O [Ac-L-His-L-Leu-L-Leu-L-Arg-OH] (Ac-HLLR-OH)	28	87.7	
CC(=O)N[C@@H](Cc1c[nH]cn1)C(=O)N1CCC[C@H]1C(=O)N[C@@H](CC(C)C)C(=O)N[C@@H](CCCNC(=N)N)C(=O)O [Ac-L-His-L-Pro-L-Leu-L-Arg-OH] (Ac-HPLR-OH)	42	97.2	
CC(C)C[C@@H](C=O)NC(=O)[C@H](CC(C)C)NC(=O)[C@H](CC(C)C)NC(=O)OCc1ccccc1 [MG-132, reference compound] (Cbz-Leu-Leu-Leu-aldehyde)			294
